According to patent publication US9834571B2, “Compounds for inhibiting cell proliferation in EGFR-driven cancers” (ARIAD Pharmaceuticals, Inc., priority 2012, dated 2017):
pIC50: −log10 of the molar value. Read-outs that look alike come from different tables or passages of the source.

Experiments:
EGFR L858R/T790M = EGFR L858R/T790M (Homo sapiens, UniProt P00533, L858R/T790M); assay: Kinase inhibitory activity against EGFR bearing the L858R/T790M double mutation; assay type: biochemical; details: 10 μM ATP, read-out: IC50 for kinase inhibition, EGFR L858R T790M
Procedure, shortened: (§1)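 Kinase inhibition was measured against native human EGFR and the L858R and L858R/T790M mutants. Compounds were run as 10-point curves in singlicate from a 3 μM top concentration, with 10 μM ATP.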

[1] = target: human EGFR (native sequence) (Homo sapiens, UniProt P00533); assay: Kinase inhibitory activity against human EGFR (native sequence); assay type: biochemical; details: 10 μM ATP, read-out: IC50 for kinase inhibition, EGFR
Procedure, shortened: as §1

[2] = tested on: BaF3 cells expressing wildtype EGFR; assay: Antiproliferative activity (MTT) against control BaF3 cells expressing wildtype EGFR; assay type: cell-based; details: Mus musculus
Procedure, shortened: (§2)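 Growth inhibition of EGFR-mutant BaF3 cells was assessed with an MTT assay. A BaF3 line expressing wildtype EGFR served as comparator.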

EGFR L858R = EGFR L858R (Homo sapiens, UniProt P00533, L858R); assay: Kinase inhibitory activity against EGFR bearing the L858R mutation; assay type: biochemical; details: 10 μM ATP, read-out: IC50 for kinase inhibition, EGFR L858R
Procedure, shortened: as §1

[3] = target: T1, BaF3 cells expressing the target EGFR mutations (Homo sapiens, UniProt P00533, T790M, cells depend on it, form not given); assay: Antiproliferative activity (MTT) against BaF3 cells expressing the target EGFR mutations; assay type: cell-based; details: BAF3 EGFR DEL T790M PURO POOL cells, read-out: IC50, BAF3 EGFR DEL T790M PURO POOL
T1 construct: IC50, BAF3 EGFR DEL T790M PURO POOL; other: BAF3 EGFR DEL T790M PURO POOL cells, MTT; other: BAF3 EGFR DEL T790M PURO POOL cells; MTT
Procedure, shortened: as §2

[4] = target: T2, BaF3 cells expressing the target EGFR mutations (Homo sapiens, UniProt P00533, T790M/L858R, cells depend on it); assay: as above; assay type: cell-based; details: BAF3 EGFR L858R-T790M PURO POOL cells, read-out: IC50, BAF3 EGFR L858R-T790M PURO POOL
T2 construct: IC50, BAF3 EGFR L858R-T790M PURO POOL; other: BAF3 EGFR L858R-T790M PURO POOL cells, MTT; IC50, BAF3 EGFR L858R-T790M PURO POOL; other: BAF3 EGFR L858R-T790M PURO POOL cells; MTT
Procedure, shortened: as §2

[5] = 10 pt curves, 3 μM top concentration
[6] = EGFR L858R/T790M double mutation

EGFR L858R, sequence (P00533 25-1210 L858R): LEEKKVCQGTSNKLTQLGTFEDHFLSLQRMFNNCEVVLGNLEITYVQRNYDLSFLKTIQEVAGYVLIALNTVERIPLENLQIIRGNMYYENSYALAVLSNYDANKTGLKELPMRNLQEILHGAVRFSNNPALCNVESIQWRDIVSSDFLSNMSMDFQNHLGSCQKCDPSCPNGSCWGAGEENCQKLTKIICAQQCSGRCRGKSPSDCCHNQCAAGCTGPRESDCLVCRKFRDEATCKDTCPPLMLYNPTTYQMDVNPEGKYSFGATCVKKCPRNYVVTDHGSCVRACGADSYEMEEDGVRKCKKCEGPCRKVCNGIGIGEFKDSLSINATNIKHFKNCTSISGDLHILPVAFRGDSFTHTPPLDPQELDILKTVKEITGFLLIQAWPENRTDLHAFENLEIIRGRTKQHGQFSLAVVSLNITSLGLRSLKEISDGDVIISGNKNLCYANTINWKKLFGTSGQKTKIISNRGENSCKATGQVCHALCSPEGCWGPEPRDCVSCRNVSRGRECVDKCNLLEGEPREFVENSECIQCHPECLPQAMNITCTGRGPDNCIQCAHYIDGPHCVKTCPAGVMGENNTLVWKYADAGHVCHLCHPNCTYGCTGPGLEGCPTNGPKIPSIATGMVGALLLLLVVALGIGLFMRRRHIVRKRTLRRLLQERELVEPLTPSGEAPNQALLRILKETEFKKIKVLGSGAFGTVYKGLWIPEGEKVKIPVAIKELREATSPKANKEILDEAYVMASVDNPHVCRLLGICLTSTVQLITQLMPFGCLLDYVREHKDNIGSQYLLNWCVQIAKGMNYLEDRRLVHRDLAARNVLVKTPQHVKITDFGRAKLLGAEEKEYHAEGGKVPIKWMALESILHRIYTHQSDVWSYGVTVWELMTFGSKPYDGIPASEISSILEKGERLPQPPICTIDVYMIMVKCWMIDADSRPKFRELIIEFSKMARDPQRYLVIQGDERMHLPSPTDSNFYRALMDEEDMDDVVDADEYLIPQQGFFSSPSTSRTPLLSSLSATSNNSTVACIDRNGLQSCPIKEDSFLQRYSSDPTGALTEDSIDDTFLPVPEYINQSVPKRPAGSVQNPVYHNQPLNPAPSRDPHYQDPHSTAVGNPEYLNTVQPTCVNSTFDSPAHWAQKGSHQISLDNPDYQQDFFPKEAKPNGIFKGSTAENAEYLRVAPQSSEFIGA
T2 sequence (P00533 whole entry T790M/L858R): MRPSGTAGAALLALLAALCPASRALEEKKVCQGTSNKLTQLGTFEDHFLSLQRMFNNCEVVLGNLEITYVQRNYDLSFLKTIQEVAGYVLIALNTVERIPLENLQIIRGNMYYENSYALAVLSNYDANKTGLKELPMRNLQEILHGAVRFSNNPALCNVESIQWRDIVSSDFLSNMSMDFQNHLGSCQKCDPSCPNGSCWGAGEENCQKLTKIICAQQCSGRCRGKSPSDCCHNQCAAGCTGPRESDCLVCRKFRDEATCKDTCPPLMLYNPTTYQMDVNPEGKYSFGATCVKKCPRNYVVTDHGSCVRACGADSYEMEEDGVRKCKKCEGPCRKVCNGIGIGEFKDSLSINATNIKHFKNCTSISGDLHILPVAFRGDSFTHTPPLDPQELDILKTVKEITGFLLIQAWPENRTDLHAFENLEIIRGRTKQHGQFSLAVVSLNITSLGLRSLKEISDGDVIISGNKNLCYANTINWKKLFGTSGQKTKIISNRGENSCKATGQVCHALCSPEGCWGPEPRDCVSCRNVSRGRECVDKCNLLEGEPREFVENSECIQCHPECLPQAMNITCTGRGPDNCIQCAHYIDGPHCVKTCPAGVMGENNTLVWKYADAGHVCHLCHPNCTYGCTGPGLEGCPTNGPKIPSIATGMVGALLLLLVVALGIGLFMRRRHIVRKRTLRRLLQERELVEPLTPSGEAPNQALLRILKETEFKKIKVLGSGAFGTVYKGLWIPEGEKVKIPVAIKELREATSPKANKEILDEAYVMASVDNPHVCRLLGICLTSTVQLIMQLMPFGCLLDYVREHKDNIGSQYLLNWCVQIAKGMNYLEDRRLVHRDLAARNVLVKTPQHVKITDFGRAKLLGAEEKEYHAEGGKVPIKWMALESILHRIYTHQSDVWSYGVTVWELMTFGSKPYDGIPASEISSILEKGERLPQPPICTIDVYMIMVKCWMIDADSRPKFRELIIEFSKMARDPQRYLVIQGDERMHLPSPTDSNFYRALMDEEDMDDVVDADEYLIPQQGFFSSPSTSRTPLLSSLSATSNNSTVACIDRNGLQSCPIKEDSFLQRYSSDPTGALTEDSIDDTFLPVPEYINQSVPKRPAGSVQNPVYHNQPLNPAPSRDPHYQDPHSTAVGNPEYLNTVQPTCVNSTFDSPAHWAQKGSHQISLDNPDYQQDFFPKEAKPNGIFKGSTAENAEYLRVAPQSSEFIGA
human EGFR (native sequence), sequence (P00533 25-1210): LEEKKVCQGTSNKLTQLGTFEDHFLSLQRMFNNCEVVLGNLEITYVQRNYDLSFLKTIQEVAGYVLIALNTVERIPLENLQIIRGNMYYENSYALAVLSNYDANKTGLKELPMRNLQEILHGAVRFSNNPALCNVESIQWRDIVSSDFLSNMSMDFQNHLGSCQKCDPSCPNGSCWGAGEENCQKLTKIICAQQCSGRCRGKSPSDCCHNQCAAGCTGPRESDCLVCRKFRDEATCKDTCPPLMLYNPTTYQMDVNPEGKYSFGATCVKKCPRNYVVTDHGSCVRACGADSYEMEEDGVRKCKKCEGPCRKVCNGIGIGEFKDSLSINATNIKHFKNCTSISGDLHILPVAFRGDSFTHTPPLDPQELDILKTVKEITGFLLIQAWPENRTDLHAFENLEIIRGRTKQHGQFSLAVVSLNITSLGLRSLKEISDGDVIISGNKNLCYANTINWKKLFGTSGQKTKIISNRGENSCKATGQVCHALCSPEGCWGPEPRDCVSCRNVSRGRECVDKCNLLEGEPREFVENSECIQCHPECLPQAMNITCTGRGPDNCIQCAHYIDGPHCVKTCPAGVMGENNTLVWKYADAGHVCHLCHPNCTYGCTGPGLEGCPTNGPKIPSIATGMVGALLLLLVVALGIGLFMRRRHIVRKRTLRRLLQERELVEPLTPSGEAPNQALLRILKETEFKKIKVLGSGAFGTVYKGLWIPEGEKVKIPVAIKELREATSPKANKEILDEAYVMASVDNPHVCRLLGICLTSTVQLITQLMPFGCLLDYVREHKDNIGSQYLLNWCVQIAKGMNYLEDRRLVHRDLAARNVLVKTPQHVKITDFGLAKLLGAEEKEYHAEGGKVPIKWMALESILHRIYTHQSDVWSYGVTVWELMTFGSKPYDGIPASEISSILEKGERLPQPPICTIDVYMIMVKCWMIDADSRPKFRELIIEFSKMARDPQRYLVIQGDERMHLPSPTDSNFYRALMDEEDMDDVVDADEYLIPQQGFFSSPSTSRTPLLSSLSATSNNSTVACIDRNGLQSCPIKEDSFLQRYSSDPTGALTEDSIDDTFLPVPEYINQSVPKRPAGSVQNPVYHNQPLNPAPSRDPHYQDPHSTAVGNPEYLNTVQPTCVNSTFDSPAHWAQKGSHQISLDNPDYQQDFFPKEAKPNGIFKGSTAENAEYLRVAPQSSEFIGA
EGFR L858R/T790M, sequence (P00533 25-1210 T790M/L858R): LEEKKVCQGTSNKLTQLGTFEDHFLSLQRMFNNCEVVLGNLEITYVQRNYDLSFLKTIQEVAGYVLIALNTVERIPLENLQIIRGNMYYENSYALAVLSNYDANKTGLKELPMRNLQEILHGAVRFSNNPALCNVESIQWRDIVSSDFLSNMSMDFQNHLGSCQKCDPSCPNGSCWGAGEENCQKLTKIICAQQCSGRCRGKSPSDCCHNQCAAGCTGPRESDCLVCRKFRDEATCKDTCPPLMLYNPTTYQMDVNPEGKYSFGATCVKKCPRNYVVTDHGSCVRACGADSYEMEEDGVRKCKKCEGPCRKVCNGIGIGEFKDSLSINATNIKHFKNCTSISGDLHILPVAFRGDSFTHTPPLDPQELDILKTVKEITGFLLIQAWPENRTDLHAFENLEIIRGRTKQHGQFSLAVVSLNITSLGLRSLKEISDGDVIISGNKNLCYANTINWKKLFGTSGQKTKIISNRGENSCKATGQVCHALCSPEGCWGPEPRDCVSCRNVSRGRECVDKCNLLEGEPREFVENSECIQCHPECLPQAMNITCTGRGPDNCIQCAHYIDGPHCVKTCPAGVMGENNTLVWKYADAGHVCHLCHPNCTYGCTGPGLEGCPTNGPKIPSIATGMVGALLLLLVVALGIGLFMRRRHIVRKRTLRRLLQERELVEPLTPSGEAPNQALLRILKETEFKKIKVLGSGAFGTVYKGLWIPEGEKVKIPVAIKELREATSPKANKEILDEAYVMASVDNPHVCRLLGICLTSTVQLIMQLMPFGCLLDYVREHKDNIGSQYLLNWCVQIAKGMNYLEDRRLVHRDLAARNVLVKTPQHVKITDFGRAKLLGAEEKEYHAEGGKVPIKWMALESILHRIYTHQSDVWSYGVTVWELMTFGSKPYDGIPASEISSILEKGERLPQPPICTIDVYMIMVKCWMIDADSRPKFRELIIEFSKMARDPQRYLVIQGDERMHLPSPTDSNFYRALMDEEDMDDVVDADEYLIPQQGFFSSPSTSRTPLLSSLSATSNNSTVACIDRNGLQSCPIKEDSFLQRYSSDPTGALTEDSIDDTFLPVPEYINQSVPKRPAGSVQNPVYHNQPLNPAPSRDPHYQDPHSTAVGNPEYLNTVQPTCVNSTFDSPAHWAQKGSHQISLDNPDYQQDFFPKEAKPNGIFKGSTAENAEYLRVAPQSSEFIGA

Row | SMILES | pIC50 (EGFR L858R/T790M; [5]) | pIC50 [1, 5] | pIC50 (EGFR L858R; [5]) | GI50 [3] | GI50 [4] | pIC50 (EGFR L858R/T790M; [6]) | pIC50 ([1]; human EGFR native sequence) | pIC50 (EGFR L858R; EGFR L858R) | pIC50 ([2]; BAF3 parental cells) | pIC50 ([2]; BAF3 PARENTAL cells (control))
1 | C=CC(=O)Nc1cc(Nc2ncc(Cl)c(Nc3ccccc3P(C)(C)=O)n2)c(OC)cc1N1CCN(C2CCN(C)CC2)CC1 [Example 27, N-(5-((5-chloro-4-((2-(dimethylphosphoryl)phenyl)amino)pyrimidin-2-yl)amino)-4-methoxy-2-(4-(1-methylpiperidin-4-yl)piperazin-1-yl)phenyl)acrylamide] |  |  |  | 50 to 100 nM | 101 to 250 nM | > 7.30 | > 7.30 | > 7.30 |  | ≤ 6.60
2 | CNC(=O)/C=C/C(=O)Nc1ccc(OC)c(Nc2ncc(Cl)c(Nc3ccccc3P(C)(C)=O)n2)c1 [Example 109, N1-(3-((5-chloro-4-((2-(dimethylphosphoryl)phenyl)amino)pyrimidin-2-yl)amino)-4-methoxyphenyl)-N4-methylfumaramide] | > 7.30 | ≤ 6.60 | > 7.30 | 50 to 100 nM | 101 to 250 nM |  |  |  | ≤ 6.60 | 
3 | COc1ccc(NC(=O)C2=CCCCC2)cc1Nc1ncc(Cl)c(Nc2ccccc2P(C)(C)=O)n1 [Example 79, N-(3-((5-chloro-4-((2-(dimethylphosphoryl)phenyl)amino)pyrimidin-2-yl)amino)-4-methoxyphenyl)cyclohex-1-enecarboxamide] |  |  |  | ≥ 250 nM | ≥ 250 nM | ≤ 6.60 | ≤ 6.60 | ≤ 6.60 |  | ≤ 6.60
4 | COc1ccc(NC(=O)/C=C\C(=O)O)cc1Nc1ncc(Cl)c(Nc2ccccc2P(C)(C)=O)n1 [Example 61, (Z)-4-((3-((5-chloro-4-((2-(dimethylphosphoryl)phenyl)amino)pyrimidin-2-yl)amino)-4-methoxyphenyl)amino)-4-oxobut-2-enoic acid] |  |  |  | ≥ 250 nM | ≥ 250 nM | 6.60 to 7.00 | ≤ 6.60 | ≤ 6.60 |  | ≤ 6.60
5 | C=CC(=O)Nc1cc(Nc2ncc(Cl)c(Nc3ccccc3P(C)(C)=O)n2)c(OC)cc1N1CCC(N(CC)CC)C1 (stereo not drawn) [Example 34, N-(5-((5-chloro-4-((2-(dimethylphosphoryl)phenyl)amino)pyrimidin-2-yl)amino)-2-(3-(diethylamino)pyrrolidin-1-yl)-4-methoxyphenyl)acrylamide] |  |  |  | < 50 nM | < 50 nM | > 7.30 | > 7.30 | > 7.30 |  | ≤ 6.60

The next lines start with results.

Row | pIC50 (EGFR L858R/T790M; [5]) | pIC50 [1, 5] | pIC50 (EGFR L858R; [5]) | GI50 [3] | GI50 [4] | pIC50 (EGFR L858R/T790M; [6]) | pIC50 ([1]; human EGFR native sequence) | pIC50 (EGFR L858R; EGFR L858R) | SMILES | pIC50 ([2]; BAF3 parental cells) | pIC50 ([2]; BAF3 PARENTAL cells (control))
6 | > 7.30 | > 7.30 | > 7.30 | < 50 nM | < 50 nM |  |  |  | C=CC(=O)Nc1cc(Nc2ncc(Cl)c(Nc3ccccc3P(C)(C)=O)n2)c(OC)cc1C#CC(C)(C)N(CC)CC [Example 154, N-(5-((5-chloro-4-((2-(dimethylphosphoryl)phenyl)amino)pyrimidin-2-yl)amino)-2-(3-(diethylamino)-3-methylbut-1-yn-1-yl)-4-methoxyphenyl)acrylamide] | ≤ 6.60 | 
7 | > 7.30 | > 7.30 | > 7.30 | < 50 nM | < 50 nM |  |  |  | COc1cc(N2CCOCC2)c(NC(=O)C#CCCN(C)C)cc1Nc1ncc(Cl)c(Nc2ccccc2P(C)(C)=O)n1 [Example 114, N-(5-((5-chloro-4-((2-(dimethylphosphoryl)phenyl)amino)pyrimidin-2-yl)amino)-4-methoxy-2-morpholinophenyl)-5-(dimethylamino)pent-2-ynamide] | ≤ 6.60 | 
8 | > 7.30 | > 7.30 | > 7.30 | < 50 nM | < 50 nM |  |  |  | C=CC(=O)Nc1ccc(CC)c(Nc2ncc(Cl)c(Nc3ccccc3P(C)(C)=O)n2)c1 [Example 135, N-(3-((5-chloro-4-((2-(dimethylphosphoryl)phenyl)amino)pyrimidin-2-yl)amino)-4-ethylphenyl)acrylamide] | ≤ 6.60 | 
